The values below come from patent US5883079A, “Method for inhibiting H. pylori infection in mammalian tissue” (Neose Technologies, Inc., priority 1998, dated 1999).

Where “and” joins values, the source holds several entries; their conditions need not be identical. Identical values can stand only once. Entries after “also recorded” stand apart in the source; their conditions may differ. A value given as a limit tells only on which side of the number the result lay.

Test [1] deals with Helicobacter pylori. The experiment in a line: Effectiveness at inhibiting Helicobacter pylori when treating mammals, compared with fetuin. To be noted: vs fetuin. More on the design: species or system mammals; H. pylori.
Test [2] relates to H. pylori. The experiment in a line: In vivo animal test: H. pylori colonization in gnotobiotic piglets. The arrangement: bacterial colonies, colony forming units/gram of gastric epithelium, Experiment A / bacterial colonies, colony forming units/gram of gastric epithelium, Experiment B / bacterial colonies, colony forming units/gram of gastric epithelium, mean ± SD: scale not given here. As for the experimental part:
Gnotobiotic derived piglets (delivered by cesarean section and housed in a germ-free environment) were orally treated with 100 mg of 3'sialyl lactose in 5.0 ml of water.
Six day old gnotobiotic piglets were orally treated with seven doses of 100 mg each of 3' sialyl lactose, at about 8 hour intervals. As a control, the piglets were administered water. The third administration of 3' sialyl lactose and control was accompanied with 2×10^9 live H. pylori. Two piglets were administered 3'sialyl lactose and 2 piglets were administered the control.
Twenty one day old gnotobiotic piglets were orally treated with seven doses of 100 mg each of 3' sialyl lactose, at about 8 hour intervals. As a control, the piglets were administered water. The third administration of 3' sialyl lactose and control was accompanied with 4×10^9 live H. pylori. Four piglets were administered 3'sialyl lactose and 2 piglets were administered the control.
The piglets were evaluated by determining bacterial colonies in blood-agar as colony forming units/gram of gastric epithelium (CFU/g). Gastric epithelium homogenates were plated on agar in serial 1:10 dilutions and bacterial colonies were counted on the plates, with 20-200 colonies/plate after 5 days.

Test [3] has as its system H. pylori binding to HuTu-80 cell monolayer. The experiment in a line: H. pylori binding inhibition to HuTu-80 cell monolayers (microtiter, urease readout). To be noted: for IC50: Homo sapiens, HuTu80; for activity in inhibiting binding of H. pylori cells, in vitro: in words. The class given is cell-based, human (HuTu-80); H. pylori. As for the experimental part:
The cultures were maintained in Basal medium Eagle containing 10% fetal calf serum in T-75 flasks, at 37° C. and a 5% CO2 atmosphere. Cells were harvested by trypsin/EDTA release and plated on 96-well flat bottom microtiter plates. The microtiter plates were incubated for 2-3 days until the monolayers grew to confluence. Prior to binding inhibition tests, the monolayer was washed with Hanks Balanced Salt solution (HBSS) containing Ca^+2 and Mg^+2, 0.1% BSA, 50 mM HEPES, 0.01 phenol red or HBHPR.
H. pylori bacteria isolates were obtained from B. Marshall (from the University of Virginia) and grown on sheep blood agar, collected at 48 h, washed and suspended in a binding buffer of HBSS+0.1% bovine serum albumin+50 mM HEPES buffer+0.01% phenol red or HBHPR.
The same concentration of bacteria and test compound were combined for 10 minutes, then transferred onto the monolayer. Binding was allowed to occur for 20 min at room temperature under mild agitation. The unbound bacteria was washed away with 1 wash of HBHPR, then 2 washes of the same buffer without HEPES buffer (HBPR).
The presence of bound bacteria is indicated by the presence of bacterial urease which generates NH3, which raises the pH and changes the color to purple, near at OD595.
IC50 in mg/ml was determined for each compound tested. The test data is reported below in Table 1:
IC50 S were determined using the HuTu-80 cell line monolayers.

Test [4] deals with H. pylori binding to an erythrocyte receptor. To be noted: cited from earlier work; for hemagglutination inhibition (in words): vs NeuAc(2→6)-lactose / NeuAc(2→3)-lactose.
Test [5] deals with H. pylori. To be noted: in words; cited from earlier work.
The conditions of test [6]: in words; cited from earlier work.
For test [7], the system named is H. pylori. The settings on record: material treated with neuraminidase; cited from earlier work.
In a further test the test system is Y-1 mouse adrenal cells. To be noted: in words; cited from earlier work.
The subject of test [8] is Helicobacter pylori. To be noted: in words; cited from earlier work.

As to `CC(=O)N[C@H]1[C@H]([C@H](O)[C@H](O)CO)O[C@@](O[C@H]2[C@@H](O)[C@@H](CO)O[C@@H](O[C@H]3[C@H](O)[C@@H](O)C(O)O[C@@H]3CO)[C@@H]2O)(C(=O)O)C[C@@H]1O` (stereo partly drawn) [3' sialyl lactose, N-acetylneuraminyl-α(2→3)-Gal β1→4 Glc], the “times more effective at inhibiting Helicobacter pylori than fetuin” value in the test with Helicobacter pylori [1] was “more than 6.41 times”. For the same molecule, the “bacterial colonies, colony forming units/gram of gastric epithelium, mean ± SD” value in the test with H. pylori [2] (Experiments A and B together) came out at 6.9 ± 5.9 CFU/g. The “H. pylori binding inhibition in mammals” value in the test on H. pylori [2] (in words, validated through in vivo mammalian test data) is given as “surprisingly effective inhibitor”. In the test with H. pylori [2] (six day old piglets, oral, seven doses of 100 mg, 8 hour intervals, 2×10^9 live H. pylori, individual animals), the “bacterial colonies, colony forming units/gram of gastric epithelium, Experiment A” value is 5.44 CFU/g and 0 CFU/g. Moreover, the “bacterial colonies, colony forming units/gram of gastric epithelium, Experiment B” value with H. pylori [2] (twenty one day old piglets, oral, seven doses of 100 mg, 8 hour intervals, 4×10^9 live H. pylori, individual animals) was 4.46 CFU/g and 25.5 CFU/g and 3.71 CFU/g and 2.48 CFU/g. In test [3], the IC50 came out at 6 mM and the “activity in inhibiting binding of H. pylori cells, in vitro” value is reported as “surprisingly strongly inhibits H. pylori”. Besides, the “hemagglutination inhibition (in words)” value in test [4] was “preferentially inhibited”.
Consider `CC(=O)N[C@H]1[C@H]([C@H](O)[C@H](O)CO)O[C@@](OC[C@H]2O[C@@H](O[C@H]3[C@H](O)[C@@H](O)C(O)O[C@@H]3CO)[C@H](O)[C@@H](O)[C@H]2O)(C(=O)O)C[C@@H]1O` (stereo partly drawn) [6' sialyl lactose, N-acetylneuraminyl-α(2→6)-Gal β1→4 Glc, reference compound], for which the IC50 in test [3] is greater than 10 mM.
With `OC[C@H]1O[C@@H](O[C@H]2[C@H](O)[C@@H](O)C(O)O[C@@H]2CO)[C@H](O)[C@@H](O)[C@H]1O` (stereo partly drawn) [lactose, reference compound], in test [3], the IC50 is greater than 10 mM.
As to “#3: fraction # 3 corresponds with pure fetuin”, in [3] (HuTu-80, fetuin fraction, Expt C), the “IC50, Expt C” value amounted to 1300 µg/mL.
Consider “Colloidal bismuth subcitrate [Colloidal bismuth subcitrate (CBS)]”, for which, in the test on H. pylori [5], the “eradication of H. pylori” value is “ability to eradicate H. pylori” and the “relapse rates after cessation of therapy” value is recorded as “lower relapse rates”. In addition, the “effectiveness as a histamine H2 antagonist” value in [6] was “effective as a histamine H2 antagonist”.
“N-acetylneuraminyllactose [reference compound]”: the “decrease in MFI upon neuraminidase treatment” value (“decrease” below) in the test with H. pylori [7] is 16.8%.
As to asialofetuin: asialofetuin, in the test on H. pylori [7], the “decrease” value is given as 8.6%.
For “fetuin: Sialoprotein which contains the NeuAc(2→3)Gal isomer of NeuAc-lactose”, in test [3], the “activity in inhibiting binding of H. pylori cells, in vitro” value is “minimal activity”. In test [4] (hemagglutination inhibition), the “concentration needed to produce 100% HAI” value was 0.500 mg/mL, the “times as effective as bovine NeuAc-lactose” value is 0.156 times and the “times as effective as α2-Macroglobulin” value is listed as “about 2 times”. Moreover, the “hemagglutination inhibition (in words)” value in test [4] was “also inhibited H. pylori binding, but at higher concentrations”. Also, in the test on Y-1 mouse adrenal cells, the “adherence to Y-1 cells” value is recorded as “blocked”. Further, in the test on H. pylori [7], the “decrease” value was 29.8%.
Regarding gangliotetraosylceramide, the “recognition by H. pylori” value in the test with Helicobacter pylori [8] is on record as “specifically recognizes”.
Take gangliotriaosylceramide: the “recognition by H. pylori” value in the test with Helicobacter pylori [8] was “specifically recognizes”.
For phosphatidylethanolamine, in the test on Helicobacter pylori [8], the “recognition by H. pylori” value is “receptor; also recorded: specifically recognizes”.
“α2 -Macroglobulin: Sialoprotein which contains the NeuAc(2→3)Gal isomer of NeuAc-lactose”: the “concentration needed to produce 100% HAI” value in test [4] (hemagglutination inhibition) is 1.000 mg/mL. Also, the “hemagglutination inhibition (in words)” value in [4] is given as “also inhibited H. pylori binding, but at higher concentrations”.

B1: Glycophorin A: Sialoprotein which contains the NeuAc(2→3)Gal isomer of NeuAc-lactose (protein, UniProt P02724 20-150, looked up)
Glycophorin-A: LSTTEVAMHTSTSSSVTKSYISSQTNDTHKRDTYAATPRAHEVSEISVRTVYPPEEETGERVQLAHHFSEPEITLIIFGVMAGVIGTILLISYGIRRLIKKSPSDVKPLPSPDTDVPLSSVEIENPETSDQ
Take B1: the “concentration needed to produce 100% HAI” value in test [4] (hemagglutination inhibition) is 0.250 mg/mL. The “hemagglutination inhibition (in words)” value in test [4] was “also inhibited H. pylori binding, but at higher concentrations”.

Usually IC50 stands for the concentration that gives 50% inhibition.
